Data reported in patent publication US11129389B2, “Gluten-free grain-concentrate substitute for fermented wheat germ food product and method of preparation” (priority 2013, dated 2021).

Assay: In vivo experiments: activity level after removal of a component
Conditions: named component removed from product
Source text: The basis for the disclosure that 2-6 methoxy substituted benzoquinones is not an active component of the present invention is vivo experiments.

Compound	activity level of the present invention when the component was removed
COc1cc(O)ccc1O [c, monomethoxy-1,4-hydroquinone]	decreased
2-6 methoxy substituted benzoquinones	remained unchanged
COC1=CC(=O)C=CC1=O [b, monomethoxy-1,4-benzoquinone]	decreased
COc1cc(O)cc(OC)c1O [a, 2,6-dimethoxy-1,4-hydroquinone]	decreased
